How the values were obtained:
[1] = DPPH radical-scavenging (DPPH inhibition) assay; assay type: biochemical
Description: The DPPH (2,2-diphenyl-1-picrylhydrazyl) radical dissolved in an organic solvent has maximum absorbance at 515 nm. An antioxidant substance scavenges the DPPH radical, thereby turning the solution colorless and transparent. Accordingly, antioxidant effect can be compared by measuring the DPPH radical-scavenging activity of the ginsenosides through DPPH assay.
First, a DPPH solution was prepared by dissolving 4 mg of DPPH (Sigma) in 100 mL of ethanol (Sigma). Then, 10 μM of the novel ginsenoside GS #10 of an exemplary embodiment of the present disclosure or each of the ginsenosides GS #01 to GS #06 as comparative examples of the present disclosure, isolated from the ginseng seed extract, were dissolved in 200 μL of the DPPH solution. Trolox (Sigma; 10 μM) was used as a positive control group. After keeping the reaction solution at room temperature for 30 minutes, absorbance was measured at a wavelength of 515 nm.
DPPH-inhibiting effect was compared in the same manner as in Test Example 1. The novel ginsenoside GS #10 (isolated form the ginseng seed extract) according to an exemplary embodiment of the present disclosure was compared with three marker compounds of red ginseng (Rg1, Rg3 and Rb1; Sigma) as comparative examples of the present disclosure. The concentrations of the ginsenosides were 1 and 10 μM. […]

RAW 264.7 macrophages = assay: Scavenging of LPS-induced reactive oxygen species, H2DCFDA fluorescence; assay type: cell-based
Description: RAW 264.7 macrophages purchased from ATCC were cultured in Dulbecco's modified Eagle's medium (Sigma) supplemented with 10% fetal bovine serum (FBS; HyClone) and 1% penicillin/streptomycin (Sigma) in a 5% CO2 incubator. After treating the RAW 264.7 cells with NAC (N-acetylcysteine; positive control group; Sigma) or each of the 7 ginsenosides extracted from the ginseng seed (GS #01 to GS #06 and GS #10; 10 μM each) for 1 hour, lipidpolysaccharides (LPS; inflammation/oxidative stress-induced group, Sigma) ware administered at a concentration of 10 ng/mL concentration for 30 minutes. Then, the cells were treated with 10 μM H2DCFDA (2′,7′-dichlorodihydrofluorescein diacetate; Invitrogen) for 30 minutes for measurement of reactive oxygen species. The amount of accumulated reactive oxygen species was measured using a TECAN multiplate reader (Tecan AG, excitation 485 nm, emission 530 nm).
The reactive oxygen species-scavenging ability of the novel ginsenoside GS #10 (isolated from the ginseng seed extract) according to an exemplary embodiment of the present disclosure was compared with that of three ginsenosides (Rg1, Rg3 and Rb1; Sigma), which are marker compounds of red ginseng as comparative examples of the present disclosure, in the same manner as in Test Example 2. The concentrations of the ginsenosides were 1 and 10 μM.

SH-SY5Y cells = assay: Cytotoxicity / cell viability, CCK-8; assay type: cell-based; conditions: SH-SY5Y cells, 0.1, 1, 5, 10, 20 and 50 μM, CCK-8 (FIG. 15)
Description: In order to exclude the possibility that the ginsenoside might affect antioxidant effect through cytotoxic activity, cell growth in the presence of the novel ginsenoside GS #10 according to an exemplary embodiment of the present disclosure was evaluated as follows using CCK (Cell Counting Kit)-8.
After adding 10 μL of CCK-8 reagent to SH-SY5Y cells (Dojindo, Md., USA) on a 96-well plate and maintaining at 37° C. for 2 hours, absorbance was measured at 450 nm. Cell viability was represented as the percentage (%) of the absolute optical density of each sample with respect to an untreated sample. The concentrations of the novel ginsenoside GS #10 according to an exemplary embodiment of the present disclosure in the medium for culturing the cells were 0.1, 1, 5, 10, 20 and 50 μM.

Question: What does the source list for `CC1(C)C(=O)CC[C@@]2(C)C1[C@@H](O[C@H]1OC(CO)[C@H](O)C(O)C1O[C@H]1OC(CO)[C@H](O)C(O)C1O)C[C@]1(C)C2C[C@@H](O)C2C([C@]3(C)CC[C@H](C(C)(C)O)O3)CC[C@]21C` (stereo partly drawn) [Compound 10, (20S,24R)-6-O-β-D-glucopyranosyl(1->2)-β-D-glucopyranoside-dammar-3-one-20,24-epoxy-6a,12b,25-triol]?
Answer: DPPH (reactive oxygen species)-scavenging ability, i.e., DPPH-inhibiting ability ([1]; 10 μM, room temperature 30 minutes, absorbance 515 nm, compared to Compounds 1-6 at the same concentration (FIG. 11)): remarkably higher DPPH (reactive oxygen species)-scavenging ability; DPPH-inhibiting effect ([1]; 1 and 10 μM, compared to ginsenosides Rg1, Rg3 and Rb1, marker compounds of red ginseng (FIG. 13)): remarkably excellent DPPH-inhibiting effect; removal of reactive oxygen species induced by LPS (RAW 264.7 macrophages; 10 μM for 1 hour, then LPS 10 ng/mL 30 minutes, compared to Compounds 1-6 at the same concentration (FIG. 12)): can effectively remove the reactive oxygen species induced by LPS; production of reactive oxygen species (RAW 264.7 macrophages; 1 and 10 μM, LPS-treated RAW 264.7 cells (FIG. 14)): decreased as the concentration of the novel ginsenoside GS #10 according to the present disclosure was increased; reactive oxygen species-scavenging ability (RAW 264.7 macrophages; 1 and 10 μM, compared to ginsenosides Rg1, Rg3 and Rb1 (FIG. 14)): remarkably superior; cytotoxicity (cell viability, % of untreated sample) (SH-SY5Y cells): no cytotoxicity up to 50 μM

Source: US20210308166A1, “ANTIOXIDANT COMPOSITION COMPRISING NOVEL GINSENOSIDE” (AMOREPACIFIC CORPORATION, priority 2018, published 2021)
